Active and inactive are the calls of the source.
Tests used:
[1] = HEK-293T cell viability reduction – luminescence, B-cell screen hits, cytotoxicity control for BCR NF-kB inhibitor project, dose response (AID 489021); format: functional, cell-based;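 also: HEK-293T cells carrying an NF-kB luciferase reporter; cells exposed to compound for about 14 hours before viability readout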
[2] = test system: Streptococcus sp. 'group A'; assay: Streptococcus pyogenes SK(-)GAS viability under kanamycin – luminescence, BacTiterGlo, confirmation, counter-screen for streptokinase expression inhibitor project, dose response (AID 1900); format: functional, organism-based
Streptokinase A = molecular target: T1, Streptokinase A (Streptococcus pyogenes serotype M1, UniProt P10520); assay: viability-normalized secreted streptokinase activity reduction – plasminogen activation absorbance, OD405, dose response (AID 1914); format: functional, Streptococcus pyogenes M1 GAS;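 also: secreted streptokinase activity via plasminogen activation per viability signal from cell pellet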
T1 sequence (P10520 whole entry): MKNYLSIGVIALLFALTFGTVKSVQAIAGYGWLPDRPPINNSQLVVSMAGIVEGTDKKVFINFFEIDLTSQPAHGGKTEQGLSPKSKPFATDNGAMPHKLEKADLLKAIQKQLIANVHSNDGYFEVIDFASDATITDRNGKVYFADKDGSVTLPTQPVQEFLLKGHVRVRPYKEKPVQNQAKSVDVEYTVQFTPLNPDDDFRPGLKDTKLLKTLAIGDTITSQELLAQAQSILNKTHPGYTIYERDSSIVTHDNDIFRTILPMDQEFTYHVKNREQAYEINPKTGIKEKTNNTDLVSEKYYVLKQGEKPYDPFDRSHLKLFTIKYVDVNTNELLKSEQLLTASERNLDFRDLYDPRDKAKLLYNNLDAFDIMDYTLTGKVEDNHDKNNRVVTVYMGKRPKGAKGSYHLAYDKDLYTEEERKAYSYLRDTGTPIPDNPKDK

Streptococcus = assay: GAS UMAA2166 growth inhibition – luminescence, BacTiterGlo, counter-screen for streptokinase expression inhibitor project, dose response (AID 1915); format: functional, organism-based;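 also: potency for reduction of bacterial viability or growth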
X-box-binding protein 1 = X-box-binding protein 1 (Homo sapiens, UniProt P17861); format: functional, Cricetulus griseus;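 also: confirmatory dose-response counter-screen serving a CHOP assay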
[3] = molecular target: Disintegrin and metalloproteinase domain-containing protein 17 (Homo sapiens, UniProt P78536); assay: inhibition of ADAM17 substrate cleavage – biochemical, quenched FRET substrate, counter-screen for ADAM10 exosite inhibitor project, dose response (AID 743253)
[4] = molecular target: DNA dC->dU-editing enzyme APOBEC-3A (Homo sapiens, UniProt P31941); assay: A3A deaminase inhibition for selectivity – biochemical, dose response (AID 504722); format: functional
[5] = molecular target: DNA dC->dU-editing enzyme APOBEC-3G (Homo sapiens, UniProt Q9HC16); assay: Dose Response confirmation of small molecule APOBEC3G DNA Deaminase Inhibitors via a fluorescence-based single-stranded DNA deaminase assay. [Related pubchem assays (depositor defined):AID493012, AID493028]; format: functional
Chain of DNA dC->dU-editing enzyme APOBEC-3G (Q9HC16 whole entry): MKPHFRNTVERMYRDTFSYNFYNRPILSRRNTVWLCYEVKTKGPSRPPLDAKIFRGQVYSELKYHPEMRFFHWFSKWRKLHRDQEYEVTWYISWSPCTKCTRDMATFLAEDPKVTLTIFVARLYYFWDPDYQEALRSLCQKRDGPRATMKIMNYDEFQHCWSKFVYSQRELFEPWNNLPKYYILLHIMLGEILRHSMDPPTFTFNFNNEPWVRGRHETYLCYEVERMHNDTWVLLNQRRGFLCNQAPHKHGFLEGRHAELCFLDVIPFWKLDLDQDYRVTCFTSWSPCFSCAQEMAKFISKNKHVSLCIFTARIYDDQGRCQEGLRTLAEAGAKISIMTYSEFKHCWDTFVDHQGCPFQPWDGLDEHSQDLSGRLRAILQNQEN

Chain of X-box-binding protein 1 (P17861 whole entry, the tested form may be a part): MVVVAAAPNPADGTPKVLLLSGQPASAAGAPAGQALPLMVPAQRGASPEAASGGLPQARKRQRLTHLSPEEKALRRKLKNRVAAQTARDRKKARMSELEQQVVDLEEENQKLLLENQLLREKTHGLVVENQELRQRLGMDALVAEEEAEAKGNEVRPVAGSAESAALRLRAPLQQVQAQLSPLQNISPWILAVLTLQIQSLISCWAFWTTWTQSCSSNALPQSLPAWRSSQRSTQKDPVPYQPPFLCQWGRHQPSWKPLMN
Chain of Disintegrin and metalloproteinase domain-containing protein 17 (P78536 whole entry, the tested form may be a part): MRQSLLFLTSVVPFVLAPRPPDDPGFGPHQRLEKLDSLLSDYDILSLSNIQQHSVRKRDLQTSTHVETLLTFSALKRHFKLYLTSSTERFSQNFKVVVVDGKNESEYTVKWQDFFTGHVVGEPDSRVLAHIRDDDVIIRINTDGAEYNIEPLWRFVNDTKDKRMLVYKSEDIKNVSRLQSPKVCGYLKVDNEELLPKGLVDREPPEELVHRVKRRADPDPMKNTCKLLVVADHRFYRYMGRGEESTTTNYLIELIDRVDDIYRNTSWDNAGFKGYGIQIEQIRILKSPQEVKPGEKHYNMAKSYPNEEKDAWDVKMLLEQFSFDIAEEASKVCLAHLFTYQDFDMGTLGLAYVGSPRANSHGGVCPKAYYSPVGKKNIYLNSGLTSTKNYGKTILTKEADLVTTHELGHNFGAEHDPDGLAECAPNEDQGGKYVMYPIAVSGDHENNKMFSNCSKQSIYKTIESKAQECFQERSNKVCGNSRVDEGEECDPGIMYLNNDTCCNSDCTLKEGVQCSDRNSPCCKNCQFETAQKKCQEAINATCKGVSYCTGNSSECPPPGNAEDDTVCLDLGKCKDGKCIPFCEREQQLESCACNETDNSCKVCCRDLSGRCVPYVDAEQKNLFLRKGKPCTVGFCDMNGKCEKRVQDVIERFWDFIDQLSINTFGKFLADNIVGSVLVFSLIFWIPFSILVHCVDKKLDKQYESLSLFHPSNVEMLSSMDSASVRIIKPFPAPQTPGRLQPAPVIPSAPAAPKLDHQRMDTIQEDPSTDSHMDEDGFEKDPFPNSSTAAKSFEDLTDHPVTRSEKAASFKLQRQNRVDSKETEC
Chain of DNA dC->dU-editing enzyme APOBEC-3A (P31941 whole entry): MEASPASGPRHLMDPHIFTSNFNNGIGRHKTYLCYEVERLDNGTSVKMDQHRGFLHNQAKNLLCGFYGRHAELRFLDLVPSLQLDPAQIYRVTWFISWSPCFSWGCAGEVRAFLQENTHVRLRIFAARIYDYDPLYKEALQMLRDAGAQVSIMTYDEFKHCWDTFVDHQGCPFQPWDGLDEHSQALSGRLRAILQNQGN

With `CCc1ccc(/C=C2\SC(=S)N(CCC(=O)NC3=NCCS3)C2=O)cc1` the IC50 [1] was > 80 µM (inactive).

With `COc1ccc(CCN2C(=O)c3[nH]nc(-c4ccccc4O)c3C2c2cccc(Cl)c2)cc1` (stereo not drawn) the EC50 [2] was 5.5 µM (active), the EC50 (Streptokinase A) was 17.1 µM (active) and the EC50 (Streptococcus) was 17.6 µM (active). For the same compound, the “Absolute IC50 (XBP1)” value (X-box-binding protein 1) was 10 µM and the IC50 [3] was > 69.5 µM (inactive).

With `Cc1ccccc1/C=N/n1c(S)nnc1-c1ccccn1` the IC50 [4] was > 100 µM (inactive) and the IC50 [5] was 4.13 µM (active).

— ChEMBL document CHEMBL1201862, “PubChem BioAssay data set” (2004)
